Measurements: PubChem BioAssay (NCI)
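Step 1: Grow cells in 96-well plates. Step 2: Expose to compound for 48 hours at 5 concentrations. Step 3: Interpolate endpoints linearly; if unreached, use highest concentration. The concentration for full growth arrest is given as TGI.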

Legend:
Experiment in all cases: NCI tumour cell line growth inhibition, 48 h
HOP-62 NSCLC = test system: HOP-62 NSCLC
CAKI-1 renal = test system: CAKI-1 renal
UACC-257 melanoma = test system: UACC-257 melanoma
SK-MEL-2 melanoma = test system: SK-MEL-2 melanoma
RXF 393 renal = test system: RXF 393 renal
NCI-H522 lung = test system: NCI-H522 lung
MCF7 breast = test system: MCF7 breast
SR leukemia = test system: SR leukemia
SF-295 CNS = test system: SF-295 CNS
BT-549 breast = test system: BT-549 breast
MOLT-4 leukemia = test system: MOLT-4 leukemia
A498 renal = test system: A498 renal
SW-620 colon = test system: SW-620 colon
NCI-H226 lung = test system: NCI-H226 lung

Structure (SMILES)	TGI (HOP-62 NSCLC) [µM]	TGI (CAKI-1 renal) [µM]	TGI (UACC-257 melanoma) [µM]	TGI (SK-MEL-2 melanoma) [µM]	TGI (RXF 393 renal) [µM]	TGI (NCI-H522 lung) [µM]	TGI (MCF7 breast) [µM]	TGI (SR leukemia) [µM]	TGI (SF-295 CNS) [µM]	TGI (BT-549 breast) [µM]	TGI (MOLT-4 leukemia) [µM]	TGI (A498 renal) [µM]	TGI (SW-620 colon) [µM]	TGI (NCI-H226 lung) [µM]
COC1=C(OC)C(=O)C(Cc2c(Cl)nc3sc(C)cn23)=C(C)C1=O	36	72.7	22.8	76.9	41.7	30.2	63.5	51	32.1	34.2	4.21	65.5	47.8	–
O=C(CC(=O)N(C(=O)/C=C\c1ccccc1)c1ccc(Cl)cc1)N1N=C(c2ccccc2)C(N=Nc2cccc([N+](=O)[O-])c2)C1=O (stereo unspecified)	40.8	> 100	–	–	36.9	–	28.4	14	25.2	46.9	24.7	35.6	57.9	55.9
C(=C\c1cccs1)/c1cccc(/C=C/c2cccs2)n1	> 100	> 100	> 100	> 100	> 100	–	> 100	> 100	> 100	> 100	> 100	–	> 100	> 100
COC(=O)C1(C(=O)OC)Cc2ccc(OC)cc2C2=C1C(=O)c1ccccc1C2=O	21.4	7.72	7.15	15.7	–	8.89	7.3	> 100	8.44	37.3	3.97	41.8	16.9	36.9
O=C1C(Cl)C2(CC(/C=C/c3ccccc3Cl)=NN2c2cccc(S(=O)(=O)O)c2)N1c1nc2ccccc2s1 (stereo unspecified)	–	38.6	> 100	> 100	> 100	26.9	> 100	25.3	–	> 100	> 100	> 100	> 100	> 100
Cc1cc2ccccc2n2c1nc1ccccc12	> 100	–	> 100	–	> 100	–	> 100	> 100	> 100	> 100	> 100	76.7	> 100	> 100
CC(C)OC(=O)c1ccc(NCc2cc(O)ccc2O)cc1Cl	> 64.5	3.02	37.1	> 55	13.1	–	> 45.2	8.6	34.6	1.57	8.97	> 75.9	> 62.5	> 49.9
O=C(CN1CCCCC1)Nc1ccc2sc3ccccc3c(=O)c2n1	33.3	37.7	39.7	41	–	23.1	77.9	> 100	36.6	43.1	30	–	31.4	–
O=C1/C(=C\c2ccc(O)cc2)CCC/C1=C/c1ccc(Cl)c(Cl)c1	16.1	16.7	15.7	36.9	5.8	–	14.9	–	10.1	7.49	5.8	14.3	12	15.5
O=C1/C(=C/c2cccc(Br)c2)CCc2ccccc21	30.1	30.3	28.6	25.8	–	24.3	14.9	18.4	28.5	22.2	42.1	–	17.9	31.1
C=CCOc1cccc(C2(O)c3ccccc3C3=NCCCN32)c1 (stereo unspecified)	38.8	> 86.6	33.1	17.5	–	41.4	32	32.6	7.83	> 100	40	53.2	28.7	> 31.6
O=C1CCC2C(O)c3cc4c(cc3C(c3ccc5c(c3)OCO5)N12)OCO4 (stereo unspecified)	63.7	> 100	> 100	> 100	–	> 100	> 100	> 100	> 100	> 100	> 100	> 100	> 100	> 100
CCOC(=O)/C(C#N)=C\c1ccc(N(CCC(=O)O)CCC(=O)O)c(I)c1	> 10	> 10	> 10	–	> 10	> 10	> 10	> 10	> 10	> 10	> 10	–	> 10	> 10
CN(C)Nc1cc(=O)[nH]c(=O)[nH]1	> 100	–	> 100	–	> 100	–	> 100	> 100	> 100	> 100	> 100	> 100	> 100	> 100
COc1ccc2[nH]cc(CCNC(=O)[C@H](Cc3ccccc3)NC(=O)[C@@H](NCC(F)(F)F)C(C)C)c2c1	36.2	–	37.8	38.3	36.1	32.1	36.5	> 100	25.2	42.5	69.5	–	81.6	44
CCOC(=O)P(=O)(O)c1ccc(N(C)Cc2ccccc2)cc1	> 100	> 100	> 100	> 100	–	> 100	> 100	> 100	> 100	> 100	> 100	> 100	> 100	> 100
CCCCCCCCCCCCCCCCCCNC(=O)C(N)Cc1ccc(OCc2ccccc2)cn1 (stereo unspecified)	40	32.7	43.7	33.3	42.4	38.5	35.8	–	59.1	57.3	55	35.4	59.4	–
